In test [1] the test system is M. tuberculosis (H37Rv strain). Kind of test: Mtb growth in minimal media with a defined sole carbon source. Conditions: 100 μg/mL.
The test system of test [2] is M. tuberculosis (H37Rv strain). In words: Direct effect of cholestenone on Mtb growth in broth culture (absorbance, CFU). Conditions: bacilli growing in broth culture.
The test system of the next test is Helicobacter pylori. Conditions: recent work; cited from earlier work.
The subject of test [3] is host and Mtb methylmalonyl-CoA mutase. Conditions: host and Mtb enzyme; cited from earlier work.
For the next test, the system named is Mtb isocitrate lyase(s). Conditions: Mtb enzyme, methylcitrate cycle; cited from earlier work.

Here are results for four molecules from patent US12716904B2, “Compositions and methods for the detection of tuberculosis” (Washington University, priority 2021, dated 2026).

Take `C[C@H](CCCC(C)(C)O)[C@H]1CC[C@H]2[C@@H]3CC=C4C[C@@H](O)CC[C@]4(C)[C@H]3CC[C@]12C` [25-HC, 25-hydroxycholesterol]: the “growth of Mtb with the substance as sole carbon source” value in test [1] is “grew”.
Consider `CC(C)CCC[C@@H](C)[C@H]1CC[C@H]2[C@@H]3CCC4=CC(=O)CC[C@]4(C)[C@H]3CC[C@]12C` [cholestenone, 4-cholesten-3-one], for which, in test [2], the “direct antimicrobial activity (toxicity) against Mtb” value was “not directly toxic to Mtb”. In addition, in the test with Helicobacter pylori, the “antimicrobial activity against Helicobacter pylori” value is reported as “has antimicrobial activity”.
Regarding `CC(C)CCC[C@@H](C)[C@H]1CC[C@H]2[C@@H]3CC=C4C[C@@H](O)CC[C@]4(C)[C@H]3CC[C@]12C` [cholesterol], in test [1], the “growth of Mtb with the substance as sole carbon source” value is given as “grew”.
As to `C=C(CC(=O)O)C(=O)O` [itaconate, itaconic acid], the “inhibition of methylmalonyl-CoA mutase” value in test [3] is “inhibits”. Also, the “inhibition of isocitrate lyase(s)” value with Mtb isocitrate lyase(s) was “inhibits”.
